Laboratory results reported in patent publication US20230331679A1, “NAPHTHALENE MONOIMIDE COMPOUNDS AND METHODS THEREOF” (JAWAHARLAL NEHRU CENTRE FOR ADVANCED SCIENTIFIC RESEARCH, priority 2020, published 2023).

What was measured:
[1] = target: T1, Aβ42 fibrillar aggregates (Homo sapiens, UniProt P05067); test: ThT binding assay, dissolution of preformed Aβ42 fibrils; format: biochemical; conditions: after sixth day of incubation
T1 construct: commercially available β-amyloid peptide (1-42), human; purchased marck (so in the source) PP69-.025 mg
T1 sequence (P05067 672-713 limits assumed): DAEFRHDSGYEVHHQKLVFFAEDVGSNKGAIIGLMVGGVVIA
Procedure: (§1) Monomeric form of Aβ42 peptide was prepared by dissolving 0.25 mg of commercially available β-amyloid peptide (1-42), human (cat: PP69-.025 mg), marck peptide in 250 µL of hexafluoro-2-propanol (HFIP) solvent to obtain a Aβ42 solution. This solution was incubated at room temperature for 1 hour, further to which the HFIP solvent was removed by nitrogen gas flow to obtain the monomeric Aβ42 peptide. To prepare a fibrillar sample of Aβ42 peptide, 0.025 mg of Aβ42 peptide was dissolved in […] of PBS buffer (pH = 7.4; contains 2% of DMSO or 100 mM NaOH) to obtain a monomeric Aβ42 solution and the peptide concentration in this solution was calculated through UV-Visible absorbance studies (ε = 1450 cm^-1 M^-1). The Aβ42 monomeric solution was incubated for 5 days in PBS buffer (pH = 7.4) to allow for the full phase formation of Aβ42 fibrils. The presence of Aβ42 fibrils was further confirmed by ThT assay.
(§2) The ability of NMI compounds (TGR63, TGR64 and TGR65) to prevent Aβ42 fibrillar assembly (inhibition) and to break down the preformed fibrils (dissolution) was evaluated using thioflavin (ThT) binding assay. Aβ42 fibrils at a concentration of 10 µM and its aggregates, were used to study the effect of NMI compounds (TGR63, TGR64 and TGR65) at varying concentrations on both inhibition and dissolution assays. For the inhibition assay, all the NMI compounds (TGR63, TGR64 and TGR65) were added independently to Aβ peptide (10 µM) at 0 h of the experiment, whereas for the aggregates dissolution assay they were added to Aβ42 fibrillar aggregates grown for 2 days. Upon incubating for a predetermined period, Aβ42 inhibitor samples were analyzed using ThT by measuring the fluorescence change at 485 nm as presented in FIG. 1(b) and FIG. 1(c), wherein the error bars represent the standard deviation (SD) of the fluorescence measurement. Fluorescence values were normalized to maximal fluorescence intensity at 485 nm compared to that of the control (Aβ42 with no inhibitor). Experiments were performed at various stoichiometric ratios (Aβ42/inhibitor) of 1:1, 1:2, and 1:5 with a fixed concentration of Aβ42 at 10 µM. Each experiment was repeated three times (n = 3). […] TGR 63 recorded 80% dissolution efficiency while TGR 64 and TGR 65 recorded 75% and 78% dissolution efficiency respectively, for the stoichiometric ratio of 1:5.

[2] = target: T2, Aβ42 (Homo sapiens, UniProt P05067); test: ThT binding assay, inhibition of Aβ42 fibrillar assembly; format: biochemical; conditions: for inhibitory effect on Aβ42 aggregation (ThT NFI at 482 nm): 1:1 molar ratio, 10 µM Aβ42, 10 µM inhibitor, 72 h; for decrease in the formation of Aβ aggregates: Aβ42/inhibitor 1:1, Aβ42 10 µM; for decrease in the formation of Aβ aggregates / Aβ aggregation decreased to: third day of incubation
T2 construct: commercially available β-amyloid peptide (1-42), human; purchased marck (so in the source) PP69-.025 mg
T2 sequence (P05067 672-713 limits assumed): as above
Procedure: as §1
Initially, the ability of the prepared NMI compounds, TGR63-68 to inhibit Aβ42 fibrillar assembly at 1:1 molar ratio with Aβ42 fibrils was evaluated using thioflavin (ThT) binding assay. 10 µM of Aβ42 fibrils in the absence (Ctrl) and the presence of 10 µM of inhibitors individually were incubated for 72 h. A normalized data for fluorescence intensity (NFI) of ThT at 482 nm (λex = 442 nm) was measured as represented in FIG. 1(a).
as §2

[3] = system: PC12 cells; test: Rescue of PC12 cells from Aβ42 toxicity (MTT cell viability assay); conditions: for viability at 40 µM: Rattus norvegicus, PC-12, 24 h, read-out: cell viability, PC12 cells, Aβ42 20 µM + compound 40 µM, 24 h; for enhancement in the viability of cells from Aβ toxicity: versus Aβ42 alone (54%)
Procedure: A 96-well plate was used to culture the cells (15,000 per well) with RPMI media (10% fetal bovine serum (FBS), 5% horse serum (HS,), and 1% pen-strep (PS)) at 37° C. temperature in a 5% CO2 atmosphere. Then the media was exchanged with low serum (2% FBS) media and monomeric Aβ42 was added in the absence and presence of NMI compounds and incubated for 24 h.
The structure-activity relationship (SAR) of NMI compounds towards rescuing PC12 cells from Aβ toxicity was investigated. […] Each experiment was repeated three times (n = 3), and error bars represent the standard deviation (SD).
An Alzheimer’s disease-like environment was mimicked by exposing the cultured PC12 cells to 20 µM of Aβ42 fibrils, which formed cytotoxic aggregation species in the growth media.

[4] = target: α-Syn (Homo sapiens, UniProt P37840); test: ThT binding assay, α-Syn aggregation inhibition; format: biochemical
Text: Parkinson’s disease (PD) is a neuronal disorder, mainly affects the motor system. α-Syn is a presynaptic neuronal protein that is linked neuropathologically to PD plays a vital role in the pathogenesis in a number of ways. Self-aggregation of α-Syn to form fibrillar aggregates and these toxic species mediate disruption of cellular homeostasis and cause neuronal death. These toxic aggregates affect various intracellular targets, especially synaptic function. In this context, NMI compounds of the present disclosure were used to study the possible modulation of α-Syn aggregation. The effect of NMI compounds (TGR63 and TGR64) on α-syn (100 µM) aggregation inhibition was studied through ThT binding assay. Experiments were performed at stoichiometric ratios (α-Syn:inhibitor) of 1:1, 1:2, and 1:5 with the fixed concentration of α-Syn at 100 µM.

SMILES | dissolution efficiency ([1]; Aβ42/inhibitor 1:1, Aβ42 10 µM) | dissolution efficiency ([1]; Aβ42/inhibitor 1:2, Aβ42 10 µM) | dissolution efficiency ([1]; Aβ42/inhibitor 1:5, Aβ42 10 µM) [%] | inhibitory effect on Aβ42 aggregation (ThT NFI at 482 nm) [2] | decrease in the formation of Aβ aggregates [2] | Aβ aggregation decreased to ([2]; Aβ42/inhibitor 1:2, Aβ42 10 µM) [%] | Aβ aggregation decreased to ([2]; Aβ42/inhibitor 1:5, Aβ42 10 µM) [%] | cell viability ([3]; PC12 cells, Aβ42 20 µM + compound 40 µM, 24 h, Aβ42 alone 54%, untreated 100%) [%] | viability at 40 µM ([3]; Aβ42 alone 54%, untreated 100%) [%] | decrease in the formation of α-Syn aggregates ([4]; α-Syn:inhibitor 1:1, α-Syn 100 µM) | α-Syn aggregation decreased to ([4]; α-Syn:inhibitor 1:2, α-Syn 100 µM) [%] | α-Syn aggregation decreased to ([4]; α-Syn:inhibitor 1:5, α-Syn 100 µM) [%] | enhancement in the viability of cells from Aβ toxicity ([3]; PC12 cells)
CN(C)c1ccc(C#Cc2ccc3c4c(cccc24)C(=O)N(CCN)C3=O)cc1 [TGR64, 2-(2-aminoethyl)-6-((4-(dimethylamino)phenyl)ethynyl)-1H-benzo[de]isoquinoline-1,3(2H)-dione] | ~ 35% | ~ 50% | 75 | ~38% | ~ 50% | 75 | 90 | 76 | 78 | ~ 54% | 72 | 77 | 
CN(C)c1ccc(C#Cc2ccc3c4c(cccc24)C(=O)N(CCOCCO)C3=O)cc1 [TGR65, 6-((4-(dimethylamino)phenyl)ethynyl)-2-(2-(2-hydroxyethoxy)ethyl)-1H-benzo[de]isoquinoline-1,3(2H)-dione] | ~ 35% | ~ 50% | 78 | ~25% | ~ 50% | 75 | 90 |  | 62 |  |  |  | 
C[N+](C)(C)CCN1C(=O)c2cccc3cccc(c23)C1=O [TGR66, 2-(1,3-dioxo-1H-benzo[de]isoquinolin-2(3H)-yl)-N,N,N-trimethylethan-1-aminium] |  |  |  | ~ 10% |  |  |  |  |  |  |  |  | ~ 26%
CN(C)c1ccc2c3c(cccc13)C(=O)N(CC[N+](C)(C)C)C2=O [TGR67, 2-(6-(dimethylamino)-1,3-dioxo-1H-benzo[de]isoquinolin-2(3H)-yl)-N,N,N-trimethylethan-1-aminium] |  |  |  | ~7% |  |  |  |  |  |  |  |  | ~22%
C[N+](C)(C)CCN1C(=O)c2cccc3c(C#Cc4ccccc4)ccc(c23)C1=O [TGR68, 2-(1,3-dioxo-6-(phenylethynyl)-1H-benzo[de]isoquinolin-2(3H)-yl)-N,N,N-trimethylethan-1-aminium] |  |  |  | ~5% |  |  |  |  |  |  |  |  | ~8%
